Reference: patent publication US11918693B2, “Ibuprofen and acetaminophen tablet” (GlaxoSmithKline Consumer Healthcare Holdings (US) LLC, priority 2019, dated 2024)

Test system: patients with at least moderate pain after extraction of 3 third molar teeth
Experiment: Study 1: phase 2 single-dose dental pain study, analgesic efficacy and tolerability of 3 FDCs of IBU/APAP vs IBU 400 mg and placebo
Type: in vivo, human
Conditions: single oral dose, IBU dose 400 mg
Description: Study 1 was a phase 2, 12-hour, 5-arm, randomized, double-blind, parallel group, in-patient, placebo-controlled study designed to determine the overall analgesic efficacy of 3 different FDCs of IBU/APAP compared with IBU 400 mg and placebo.
All study procedures were in compliance with the ethical principles originating in or derived from the Declaration of Helsinki and with all International Council for Harmonization Good Clinical Practice Guidelines, as well as local regulatory requirements. All patients provided written informed consent. Eligible patients were healthy males or females aged 16-40 years, inclusive, who had undergone extraction of 3 third molar teeth (with at least 2 having been partial or complete bony mandibular impactions) and had developed at least moderate pain within 5 hours of the oral surgery. Other entry criteria included: use of only the following preoperative medications/anesthetics: topical benzocaine, a short-acting parenteral local anesthetic (mepivacaine or lidocaine) with or without a vasoconstrictor and/or nitrous oxide; no contraindications to the study or rescue medications; and being sufficiently reliable, cooperative, and intelligent to record the requested information on the analgesic questionnaire form.
Upon experiencing at least moderate pain, patients were randomized 1:3:3:3:3 to receive a single oral dose of placebo; IBU 400 mg; FDC IBU/APAP 200 mg/500 mg; FDC IBU/APAP 250 mg/500 mg; or FDC IBU/APAP 300 mg/500 mg.
Patients could receive 2 additional doses of rescue medication at the study center. Patients were permitted to take rescue medication at any time but were encouraged to wait at least 1 hour after taking study medication to allow time for the medication to exert its effect. Patients who took rescue medication remained at the study site for the full duration of the study and continued to perform assessments.
At baseline, patients rated their pain severity using a categorical and a numerical pain severity rating (PSR) scale. The categorical PSR was a 4-point scale (none, mild, moderate, severe), with each category assigned a value from 0-3, respectively. The achievement of moderate pain at baseline was confirmed by a score of >50 mm on a 100-mm visual analog pain scale. Additionally, pain was assessed using an 11-point numerical PSR (0-10; 0=none to 10=worst possible pain).
Following the administration of study medication, patients were followed and evaluated on site for 12 hours. During that time, study participants provided self-ratings of pain severity (on both categorical and numerical PSR scales as described above) and pain relief: using a 5-point categorical pain relief rating (PRR) scale (0=none, 1=a little, 2=some, 3=a lot, and 4=complete) at 0.25, 0.5, 1, 1.5, 2, 3, 4, 5, 6, 7, 8, 9, 10, 11, and 12 hours post-treatment, after taking study medication, immediately before taking rescue medication, or at time of study withdrawal (if either occurred).
Additional patient assessments included time to first perceptible relief (TFPR) and time to meaningful pain relief (TMPR) using the double-stopwatch method, in which the first stopwatch was pressed by the patient when pain relief was first perceived, and the second when that relief became meaningful. Duration of pain relief was measured by the time to treatment failure (i.e., the time of first dose of rescue medication or dropout due to lack of efficacy). At 12 hours or immediately before taking rescue medication for the first time, patients also provided a Patient Global Evaluation based on a 6-point categorical scale ranging from 0 (very poor) to 5 (excellent).
The primary endpoint was the time-weighted sum of pain relief and pain intensity difference (PID) scores from baseline (time 0) through 8 hours (SPRID[4]0-8) after dosing based on PRR and categorical PSR. […]

`CC(C)Cc1ccc(C(C)C(=O)O)cc1` (centres unmarked) [IBU, 2-(4-isobutylphenyl) propionic acid] was tested, and the “Alveolar osteitis, treatment-emergent adverse event, %” value was “(2.2) %”, the “Dizziness, treatment-emergent adverse event, %” value was “(7.6) %” and the “Feeling hot, treatment-emergent adverse event, %” value was “(4.3) %”. For the same compound, the “Median time to first perceptible relief (TFPR)” value was 24.9 min, the “Median time to meaningful relief (TMPR)” value was 56.2 min and the “Median time to treatment failure (duration of relief)” value was 10.4 h. The “Nausea, treatment-emergent adverse event, %” value was “(23.9) %”, the “TOTPAR0-2, mean (time-weighted sum of pain relief rating scores over 0-2 hours)” value was 4.0 and the “Tension headache, treatment-emergent adverse event, %” value was “(4.3) %”. For the same compound, the “Tremor, treatment-emergent adverse event, %” value was “(2.2) %”, the “Vomiting, treatment-emergent adverse event, %” value was “(15.2) %” and the “TOTPAR0-6, mean” value (0-6 hours) was 14.3. For the same compound, the “TOTPAR0-8, mean” value (0-8 hours) was 18.4 and the “TOTPAR0-12, mean” value (0-12 hours) was 23.9.
